Experimental findings from BindingDB's records for doi:10.7270/Q2FQ9V6B (Burnham Center For Chemical Genomics, 2012) are described below.

This assay has as its target T1, Tyrosine-protein phosphatase non-receptor type 22 (Homo sapiens, UniProt Q9Y2R2).
T1 sequence (Q9Y2R2 whole entry): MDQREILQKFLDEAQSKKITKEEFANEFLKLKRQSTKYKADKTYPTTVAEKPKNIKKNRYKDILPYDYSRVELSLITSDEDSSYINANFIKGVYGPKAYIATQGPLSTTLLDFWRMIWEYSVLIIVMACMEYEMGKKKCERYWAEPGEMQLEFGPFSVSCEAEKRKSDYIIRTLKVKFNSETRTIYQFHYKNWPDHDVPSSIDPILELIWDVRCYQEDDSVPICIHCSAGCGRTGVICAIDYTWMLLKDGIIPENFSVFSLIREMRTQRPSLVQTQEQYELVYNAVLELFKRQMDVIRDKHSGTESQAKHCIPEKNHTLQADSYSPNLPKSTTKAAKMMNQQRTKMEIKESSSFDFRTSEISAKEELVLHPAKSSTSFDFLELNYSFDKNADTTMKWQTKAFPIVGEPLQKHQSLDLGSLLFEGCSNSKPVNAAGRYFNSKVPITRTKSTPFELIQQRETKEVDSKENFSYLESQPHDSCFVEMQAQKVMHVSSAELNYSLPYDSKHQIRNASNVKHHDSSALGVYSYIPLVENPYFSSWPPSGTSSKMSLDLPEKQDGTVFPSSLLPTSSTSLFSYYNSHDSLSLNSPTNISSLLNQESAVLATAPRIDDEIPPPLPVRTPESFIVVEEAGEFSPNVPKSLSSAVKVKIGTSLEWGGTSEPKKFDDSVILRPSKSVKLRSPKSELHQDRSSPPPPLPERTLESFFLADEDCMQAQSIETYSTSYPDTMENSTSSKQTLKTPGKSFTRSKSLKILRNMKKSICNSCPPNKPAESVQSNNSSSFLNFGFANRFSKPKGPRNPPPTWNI
Put plainly: PTPN22 phosphatase inhibition, dose response, selectivity assay for STEP inhibitor project, biochemical (AID 624241).
`Cc1ccc(NC(=O)c2ccc3nc(N4CCOCC4)sc3c2)c(Cl)c1` [SMR000624920] displayed an IC50 of more than 100 µM. In the case of `CCN1CCN(C(=S)c2ccc(Cl)c(Cl)c2)CC1` [SMR000143195] it was more than 100 µM; in that of `O=C(N/N=C/c1cccc([N+](=O)[O-])c1)c1ccc(Br)cc1` [4-bromo-N-[(E)-(3-nitrophenyl)methylideneamino]benzamide], more than 100 µM; in that of `S=C1N=C2C(=C3SCCS3)CCCC2C(c2ccccc2)N1` (stereo not given) [MLS000516376], more than 100 µM. On to `Cc1ccc(N=C(S)N(CCN(C)C)Cc2cccs2)c(C)c1`, for which the IC50 is more than 100 µM. In the case of `O=C(N/N=C/c1ccncc1)c1cccc(S(=O)(=O)Nc2ccc(Cl)cc2)c1` it was more than 100 µM; in that of `CCOc1ccc(C(=S)N2CCN(C)CC2)cc1` [(4-ethoxyphenyl)-(4-methyl-1-piperazinyl)methanethione], more than 100 µM. In the case of `O=C1Nc2ccc3sc4ccccc4c3c2C1=O` [3H-6-Thia-3-aza-cyclopenta[c]fluorene-1,2-dione] it was more than 100 µM; in that of `O=C(NN=Cc1ccccc1O)NN=Cc1ccccc1O` [SMR001556943], more than 100 µM; in that of `CCCN(CC(=O)Nc1ccccc1OC)C(=O)Cc1ccc2c(c1)CCC2` [2-(2,3-dihydro-1H-inden-5-yl)-N-[2-[(2-methoxyphenyl)amino]-2-oxidanylidene-ethyl]-N-propyl-ethanamide], more than 100 µM. For `COc1cccc(-c2cc(C(=O)Nc3nc4ccccc4s3)c3ccccc3n2)c1` [N-(1,3-benzothiazol-2-yl)-2-(3-methoxyphenyl)-4-quinolinecarboxamide], the IC50 is more than 100 µM. For `CCOc1cc(CN=Nc2nc(O)c(CC(=O)O)s2)ccc1OCc1ccc(Cl)cc1Cl` [2-[2-[(N''E)-N''-[4-(2,4-dichlorobenzyl)oxy-3-ethoxy-benzylidene]hydrazino]-4-keto-2-thiazolin-5-yl]acetic acid] the value was 7.26 µM; for `COC(=O)c1ccccc1CSc1nsc(/C=C/N(C)C)c1C#N` [SMR000549393], more than 100 µM. Turning to `O=C(CCc1ccccc1)NNC(=O)c1ccc(NC(=O)c2ccccc2)cc1`, the IC50 was more than 100 µM. In the case of `CC(C)(C)C(=O)Nc1ccc(C(=O)Nc2cccc(Oc3ccc(C(=O)O)c(C(=O)O)c3)c2)cc1` [MLS001181252] it was more than 100 µM.

`Cc1ccc(C(=S)N2CCN(Cc3ccccc3)CC2)s1` [(5-methyl-2-thiophenyl)-[4-(phenylmethyl)-1-piperazinyl]methanethione] had an IC50 of more than 100 µM.

`O=C(N/N=C/c1ccc(Br)cc1)c1ccc(Br)o1` [5-bromanyl-N-[(E)-(4-bromophenyl)methylideneamino]furan-2-carboxamide]: the IC50 was more than 100 µM.

Turning to `N=C1S/C(=C\c2ccc(O)cc2)C(=O)N1c1ccc(F)cc1` [SMR000298434], the IC50 was more than 100 µM.

In the case of `O=C(N/N=C/C1C=CC=CC1=O)c1cccc([N+](=O)[O-])c1` (stereo not given) [MLS002667988], the IC50 is more than 100 µM.

As to `CSc1ccc(CN=Nc2ccc(S(=O)(=O)Nc3ccccc3C(=O)O)cc2[N+](=O)[O-])cc1` [MLS002245633], inhibition was half-maximal at 2.82 µM (IC50).

Regarding `Cc1c(CCC(=O)O)c(=O)oc2c(C)c(OCc3ccccc3Cl)ccc12` [3-[7-[(2-chlorophenyl)methoxy]-4,8-dimethyl-2-oxochromen-3-yl]propanoic acid], the IC50 was more than 100 µM. For `S=C(NCCc1ccccc1)Nc1c(Cl)cccc1Cl` [1-(2,6-dichlorophenyl)-3-(2-phenylethyl)thiourea] the value was more than 100 µM.

Regarding `Cc1sc2nc(CSC(C)C(=O)Nc3ccc(Cl)cn3)nc(O)c2c1C` (stereo not given) [SMR001268769], the IC50 is more than 100 µM.

Compound `OCCN1CCN(C(=S)c2ccc(Cl)c(Cl)c2)CC1` [(3,4-dichlorophenyl)-[4-(2-hydroxyethyl)-1-piperazinyl]methanethione] showed an IC50 of more than 100 µM. In the case of `Cc1c(CC(=O)O)c(=O)oc2c(C)c(OCc3ccccc3Br)ccc12` [2-[7-[(2-bromophenyl)methoxy]-4,8-dimethyl-2-oxochromen-3-yl]acetic acid] it was more than 100 µM. For `COc1ccc(OC)c(-n2c(O)c3o[nH]c(-c4ccccc4Cl)c-3c2=O)c1` [SMR000046218] the value was more than 100 µM.

`Cc1ccc(-c2nc(NC(=O)CSc3cc(C)c4ccccc4n3)ns2)cc1` [2-[(4-methyl-2-quinolyl)thio]-N-[5-(p-tolyl)-1,2,4-thiadiazol-3-yl]acetamide]: the IC50 was more than 100 µM. In turn, `COc1ccc(NC(=S)NCCCN2CCCC2)cc1Cl` [1-(3-chloro-4-methoxyphenyl)-3-[3-(1-pyrrolidinyl)propyl]thiourea] displayed an IC50 of more than 100 µM. For `S=C(c1cn(CCOc2ccccc2)c2ccccc12)N1CCCC1` [MLS-0109562.0001] the value was more than 100 µM. For `COC(=O)Nc1sc2c(c1C(N)=O)CCC(C)C2` (stereo not given) [MLS000683996] the value was more than 100 µM; for `COc1cccc(Nc2nn3c(=O)c4ccccc4nc3s2)c1`, more than 100 µM; for `CCOC(=O)N1CCC(N(CCN(C)C)C(=S)Nc2ccc(Oc3ccccc3)cc2)CC1` [SMR000311544], more than 100 µM. In the case of `O=C(N/N=C/c1ccc(Cl)c([N+](=O)[O-])c1)c1ccc2c(c1)OCCO2` [MLS000587937] it was more than 100 µM; in that of `O=C(COc1ccc(/C=N/NC(=O)c2ccccc2O)cc1)Nc1ccccc1` [N-[(E)-[4-(2-anilino-2-oxoethoxy)phenyl]methylideneamino]-2-hydroxybenzamide], more than 100 µM.

Consider `O=[N+]([O-])c1ccc(O)c(Nc2ncnc3ccccc23)c1` [4-nitro-2-(4-quinazolinylamino)phenol], for which the IC50 is more than 100 µM. For `O=S(=O)(Nc1ccc(Cl)cc1)c1ccc(N2CCOCC2)c(NC(=S)NCCN2CCOCC2)c1` the value was more than 100 µM; for `O=C(N/N=C/c1cccc(Br)c1)c1ccc(N2CCCC2=O)cc1` [N-[(E)-(3-bromophenyl)methylideneamino]-4-(2-oxidanylidenepyrrolidin-1-yl)benzamide], more than 100 µM. In the case of `OCCN1CCN(C(=S)c2ccc(Br)cc2)CC1` [MLS000577024] it was more than 100 µM.

Turning to `COc1ccc(CN=Nc2nc(O)c(CC(=O)O)s2)cc1OCc1ccc(Cl)cc1Cl` [[2-({3-[(2,4-dichlorobenzyl)oxy]-4-methoxybenzylidene}hydrazono)-4-oxo-1,3-thiazolidin-5-yl]acetic acid], inhibition was half-maximal at 33.8 µM (IC50). For `CCc1ccc(OCC(=O)Nc2ccc(-c3nc4ccccc4o3)c(O)c2)cc1` [MLS000109444] the value was more than 100 µM; for `NC(=O)C1(N2CCCCC2)CCN(C(=S)Nc2ccc(S(N)(=O)=O)cc2)CC1` [1'-({[4-(aminosulfonyl)phenyl]amino}carbonothioyl)-1,4'-bipiperidine-4'-carboxamide], more than 100 µM; for `CCOc1ccc(/C=N/NC(=O)c2cc3c(OC)cccc3[nH]2)cc1` [MLS001216500], more than 100 µM.

Compound `O=C(N/N=C/c1ccc(OC(=O)c2cccs2)cc1)c1cccc(F)c1` [MLS000576933] displayed an IC50 of more than 100 µM.

For `COc1cc(Cl)ccc1N=C(S)N(CCCN1CCOCC1)Cc1cn(C)c2ccccc12` [N'-(4-chloro-2-methoxyphenyl)-N-[(1-methyl-1H-indol-3-yl)methyl]-N-(3-morpholin-4-ylpropyl)thiourea], the concentration for half-maximal inhibition (IC50) was more than 100 µM. Consider `O=C(Nc1cccc2c(=O)[nH][nH]c(=O)c12)c1ccc([N+](=O)[O-])cc1` [MLS003171605], for which the IC50 was more than 100 µM.
